51 compounds from patent US9365588B2, “Benzoxazines as modulators of ion channels” (Vertex Pharmaceuticals Incorporated, priority 2011, dated 2016) can be followed below.

Bounds are passed on as bounds.

human NaV 1.7, sequence (Q15858 whole entry): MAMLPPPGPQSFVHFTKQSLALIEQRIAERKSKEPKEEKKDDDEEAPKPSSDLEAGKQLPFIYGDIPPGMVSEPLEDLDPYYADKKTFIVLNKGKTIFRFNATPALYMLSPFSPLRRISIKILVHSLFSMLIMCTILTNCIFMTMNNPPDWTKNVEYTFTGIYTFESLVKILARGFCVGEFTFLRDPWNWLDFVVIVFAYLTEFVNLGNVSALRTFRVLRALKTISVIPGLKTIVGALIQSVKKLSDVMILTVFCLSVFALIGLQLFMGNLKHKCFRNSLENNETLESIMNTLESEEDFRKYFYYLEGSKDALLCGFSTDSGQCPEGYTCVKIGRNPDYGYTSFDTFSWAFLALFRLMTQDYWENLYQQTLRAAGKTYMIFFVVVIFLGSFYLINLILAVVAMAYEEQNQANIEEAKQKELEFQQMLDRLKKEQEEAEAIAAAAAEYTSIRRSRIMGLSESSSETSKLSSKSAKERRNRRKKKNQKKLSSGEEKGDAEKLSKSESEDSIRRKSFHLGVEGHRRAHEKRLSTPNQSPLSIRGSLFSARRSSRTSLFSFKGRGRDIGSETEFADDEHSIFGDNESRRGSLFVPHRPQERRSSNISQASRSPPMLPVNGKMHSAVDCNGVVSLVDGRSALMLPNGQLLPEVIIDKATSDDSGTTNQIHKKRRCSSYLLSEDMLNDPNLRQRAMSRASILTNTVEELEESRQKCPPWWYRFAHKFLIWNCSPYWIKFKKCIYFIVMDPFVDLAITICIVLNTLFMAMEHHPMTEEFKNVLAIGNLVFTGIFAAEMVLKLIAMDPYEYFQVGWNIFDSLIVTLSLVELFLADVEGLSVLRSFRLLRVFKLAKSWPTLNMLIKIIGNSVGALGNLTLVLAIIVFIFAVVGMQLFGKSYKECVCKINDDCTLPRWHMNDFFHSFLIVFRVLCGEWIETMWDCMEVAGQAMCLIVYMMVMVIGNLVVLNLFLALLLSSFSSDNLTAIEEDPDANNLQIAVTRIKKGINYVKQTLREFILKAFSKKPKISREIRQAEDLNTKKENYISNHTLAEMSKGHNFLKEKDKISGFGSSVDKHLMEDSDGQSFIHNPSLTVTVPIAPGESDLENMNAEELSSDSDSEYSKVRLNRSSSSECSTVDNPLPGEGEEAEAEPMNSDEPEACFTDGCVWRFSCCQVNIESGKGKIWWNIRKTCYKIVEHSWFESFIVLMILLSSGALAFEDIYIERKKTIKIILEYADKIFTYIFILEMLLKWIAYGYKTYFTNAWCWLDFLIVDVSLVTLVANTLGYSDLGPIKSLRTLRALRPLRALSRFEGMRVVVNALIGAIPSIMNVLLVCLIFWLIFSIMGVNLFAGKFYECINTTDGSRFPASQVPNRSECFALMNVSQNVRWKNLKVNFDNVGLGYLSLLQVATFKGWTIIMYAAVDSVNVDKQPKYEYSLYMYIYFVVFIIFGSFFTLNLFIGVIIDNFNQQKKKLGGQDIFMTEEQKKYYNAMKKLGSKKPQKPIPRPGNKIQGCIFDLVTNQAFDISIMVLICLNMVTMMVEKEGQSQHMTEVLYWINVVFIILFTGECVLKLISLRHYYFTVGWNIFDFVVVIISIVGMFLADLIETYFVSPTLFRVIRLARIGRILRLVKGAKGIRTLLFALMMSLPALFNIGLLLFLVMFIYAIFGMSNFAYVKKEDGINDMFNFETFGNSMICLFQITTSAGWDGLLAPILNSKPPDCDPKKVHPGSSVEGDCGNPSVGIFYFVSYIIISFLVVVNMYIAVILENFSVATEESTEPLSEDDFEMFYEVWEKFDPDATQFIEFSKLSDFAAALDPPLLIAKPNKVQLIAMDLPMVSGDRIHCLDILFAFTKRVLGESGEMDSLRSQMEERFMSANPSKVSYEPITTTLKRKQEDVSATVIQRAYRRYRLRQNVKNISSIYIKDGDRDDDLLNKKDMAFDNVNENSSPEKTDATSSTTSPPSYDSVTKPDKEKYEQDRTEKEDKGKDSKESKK

The target of the assay is human NaV 1.7 (Homo sapiens, UniProt Q15858). Description: E-VIPR optical membrane potential assay with electrical stimulation. Type of assay: cell-based. Particulars: sodium channel inhibition; read-out: Binned Activity Data (IC50). The method in brief:
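Membrane-potential read-out: background-subtracted 460 nm/580 nm ratio during a 9 s current-controlled stimulus, 400 Hz scan. Before stimulation, NaV1.7-HEK cells carried coumarin/oxonol dye and compound (final DMSO 0.625%) for 20–35 min at room temperature; tetracaine 125 μM served as positive control.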
With `CC(C)(CO)c1ccc(C(=O)N2CCC3(CC2)Oc2ccccc2-n2c(C#N)ccc23)cc1` [Compound 810], the IC50 was not above 2000 nM.

Consider `Cn1ncc2c1-c1ccccc1OC21CCN(C(=O)c2ccc(OC(F)F)cc2)CC1` [Compound 811], for which the IC50 is more than 5000 nM.

Take `CCCOc1ccc(C(=O)N2CCC3(CC2)Oc2cc(F)ccc2-n2cccc23)cc1OC` [Compound 812]: the IC50 was not above 2000 nM.

Regarding `Cc1c(C(=O)N2CCC3(CC2)Oc2ccccc2-c2c3cnn2C)cnn1-c1ccc(F)cc1` [Compound 814], the 50% inhibitory concentration (IC50) is more than 5000 nM.

In the case of `O=C(c1ccc(C(O)C2CC2)cc1)N1CCC2(CC1)Oc1ccccc1-n1c(C(F)(F)F)ccc12` (stereo not drawn) [Compound 815], the IC50 is not above 2000 nM.

On to `COC(C)(C)c1ccc(C(=O)N2CCC3(CC2)Oc2ccccc2-n2cccc23)cc1C` [Compound 817], for which the IC50 was not above 2000 nM.

In the case of `CCCOc1ccc(C(=O)N2CCC3(CC2)Oc2ccccc2-n2c(C)ccc23)cc1C(F)(F)F` [Compound 818], the IC50 was not above 2000 nM.

On to `COc1ccc(C(=O)N2CCC3(CC2)Oc2ccccc2-n2c3ccc2S(C)(=O)=O)cc1C(F)(F)F` [Compound 819], for which the IC50 is not above 2000 nM.

Turning to `COCCOc1ccc(C(=O)N2CCC3(CC2)Oc2ccccc2-n2c(C(C)=O)ccc23)cc1OC` [Compound 820], the IC50 was not above 2000 nM.

For `CCS(=O)(=O)c1ccc(C(=O)N2CCC3(CC2)Oc2ccccc2-c2c3cnn2C)cc1C` [Compound 821], the 50% inhibitory concentration (IC50) was not above 2000 nM.

Consider `COc1ccc2c(c1)-c1c(cnn1C)C1(CCN(C(=O)c3ccc(OC(C)C)c(C)c3)CC1)O2` [Compound 822], for which the IC50 is not above 2000 nM.

Regarding `Cn1cc2c(n1)-c1ccccc1OC21CCN(C(=O)c2ccc(S(=O)(=O)NC(C)(C)C)cc2)CC1` [Compound 824], the IC50 is not above 2000 nM.

For `COc1ccc(C(=O)N2CCC3(CC2)Oc2ccccc2-n2c(C#N)ccc23)cc1C(F)(F)F` [Compound 826], the IC50 is not above 2000 nM.

Take `Cn1ncc2c1-c1ccccc1OC21CCN(C(=O)c2ccc(OC3CCCC3)cc2)CC1` [Compound 828]: the IC50 is not above 2000 nM.

Turning to `CC(C)Oc1ccc(C(=O)N2CCC3(CC2)Oc2ccccc2-c2nn(C)cc23)cn1` [Compound 830], the IC50 is not above 2000 nM.

As to `COc1cccc(C(=O)N2CCC3(CC2)Oc2ccccc2-c2c3cnn2C)c1OC` [Compound 831], the IC50 was not above 2000 nM.

`COCc1ccc2c(c1)OC1(CCN(C(=O)c3ccc(S(=O)(=O)C(C)C)cc3)CC1)c1ccc(C#N)n1-2` [Compound 832]: the 50% inhibitory concentration (IC50) is more than 5000 nM.

For the compound `CCc1ccccc1C(=O)N1CCC2(CC1)Oc1cc(Cl)ccc1-n1cccc12` [Compound 833], the IC50 is not above 2000 nM.

`Cc1nc(C(=O)N2CCC3(CC2)Oc2ccccc2-c2c3cnn2C)ccc1OC(C)C` [Compound 834]: the IC50 was not above 2000 nM.

For the compound `O=C(c1ccc(OCC2CCCO2)c(C(F)(F)F)c1)N1CCC2(CC1)Oc1ccccc1-n1cccc12` (stereo not drawn) [Compound 836], the IC50 was not above 2000 nM.

With `COc1cc(C(=O)N2CCC3(CC2)Oc2ccccc2-n2cccc23)ccc1O[C@H]1CCOC1` [Compound 837], the IC50 was not above 2000 nM.

With `Cc1cc(C(=O)N2CCC3(CC2)Oc2ccccc2-c2c3cnn2C)ccc1OC(F)(F)F` [Compound 838], the IC50 lay in the range of 2000 to 5000 nM.

For `CCc1ccc(C(=O)N2CCC3(CC2)Oc2ccccc2-n2c(C#N)ccc23)cc1OC` [Compound 839], the IC50 is not above 2000 nM.

Turning to `O=C(c1ccc(S(=O)(=O)C2CCOC2)cc1)N1CCC2(CC1)Oc1ccccc1-n1c(C(F)(F)F)ccc12` (stereo not drawn) [Compound 840], the IC50 is not above 2000 nM.

`Cn1ncc2c1-c1ccccc1OC21CCN(C(=O)c2cccc3c2OCCC3)CC1` [Compound 841]: the 50% inhibitory concentration (IC50) was not above 2000 nM.

For the compound `Cn1ncc2c1-c1ccccc1OC21CCN(C(=O)c2ccc3nc(Cl)sc3c2)CC1` [Compound 842], the IC50 was more than 5000 nM.

For the compound `Cn1cc2c(n1)-c1ccccc1OC21CCN(C(=O)c2ccc3nc(Cl)sc3c2)CC1` [Compound 843], the IC50 fell in the range of 2000 to 5000 nM.

On to `CC(C)(C)NS(=O)(=O)c1ccc(C(=O)N2CCC3(CC2)Oc2ccccc2-n2c(C#N)ccc23)cc1` [Compound 844], for which the IC50 is not above 2000 nM.

Consider `COc1ccccc1C(=O)N1CCC2(CC1)Oc1cc(F)ccc1-c1c2cnn1C` [Compound 845], for which the IC50 was not above 2000 nM.

Take `O=C(c1ccc(OCCO)cc1)N1CCC2(CC1)Oc1ccccc1-n1c(C(F)(F)F)ccc12` [Compound 846]: the IC50 is not above 2000 nM.

On to `COc1cc(C(=O)N2CCC3(CC2)Oc2ccccc2-n2cccc23)ccc1OCC(C)(C)OC` [Compound 847], for which the IC50 is not above 2000 nM.

As to `CCc1ccc(C(=O)N2CCC3(CC2)Oc2cc(CO)ccc2-n2cccc23)cc1OC` [Compound 848], the IC50 was not above 2000 nM.

Take `CC(C)(C)c1ccc(C(=O)N2CCC3(CC2)Oc2ccccc2-n2c(C#N)ccc23)cn1` [Compound 849]: the IC50 is more than 5000 nM.

For the compound `COc1cc(C(=O)N2CCC3(CC2)Oc2cc(Cl)ccc2-n2cccc23)ccc1OCCS(C)(=O)=O` [Compound 851], the IC50 was not above 2000 nM.

Consider `Cc1cc2n(c1)-c1ccccc1OC21CCN(C(=O)c2ccc(OC(C)C)c(C)c2)CC1` [Compound 852], for which the IC50 was not above 2000 nM.

Consider `COc1c(CO)cccc1C(=O)N1CCC2(CC1)Oc1ccccc1-c1c2cnn1C` [Compound 853], for which the IC50 is not above 2000 nM.

Regarding `N#Cc1ccc2n1-c1ccccc1OC21CCN(C(=O)c2ccc(OC3CNC3)cc2)CC1` [Compound 854], the IC50 was in the range of 2000 to 5000 nM.

For the compound `COc1cc(C(=O)N2CCC3(CC2)Oc2cc(F)ccc2-n2cccc23)ccc1C(C)(C)C` [Compound 855], the IC50 is not above 2000 nM.

With `Cn1ncc2c1-c1ccccc1OC21CCN(C(=O)c2ccc(O)c(F)c2)CC1` [Compound 856], the IC50 was not above 2000 nM.

Regarding `COc1ccc(C(=O)N2CCC3(CC2)Oc2cc(Cl)ccc2-n2cccc23)cc1C(F)(F)F` [Compound 857], the IC50 was not above 2000 nM.

With `COc1ccc(Cl)cc1C(=O)N1CCC2(CC1)Oc1cc(Cl)ccc1-n1cccc12` [Compound 858], the IC50 is not above 2000 nM.

With `CCS(=O)(=O)c1ccc(C(=O)N2CCC3(CC2)Oc2ccccc2-c2c3cnn2C)cc1` [Compound 859], the IC50 fell in the range of 2000 to 5000 nM.

As to `Cn1ncc2c1-c1ccccc1OC21CCN(C(=O)c2cccc3c2CC(C)(C)O3)CC1` [Compound 860], the IC50 was not above 2000 nM.

`Cn1ncc2c1-c1ccccc1OC21CCN(C(=O)c2ccc3c(ccn3C)c2)CC1` [Compound 861]: the IC50 is not above 2000 nM.

Take `Cn1ncc2c1-c1ccccc1OC21CCN(C(=O)c2cccnc2Oc2ccc(F)cc2)CC1` [Compound 862]: the IC50 is not above 2000 nM.

Regarding `CCc1ccc(C(=O)N2CCC3(CC2)Oc2cc(C(=O)N(C)C)ccc2-n2cccc23)cc1OC` [Compound 863], the IC50 is not above 2000 nM.

On to `N#Cc1ccc2n1-c1ccccc1OC21CCN(C(=O)c2ccc(C3(O)COC3)cc2)CC1` [Compound 864], for which the IC50 was not above 2000 nM.

With `CCOc1ccc(C(=O)N2CCC3(CC2)Oc2ccccc2-c2c3cnn2C)cc1OC` [Compound 866], the concentration for half-maximal inhibition (IC50) was not above 2000 nM.

Consider `Cn1ncc2c1-c1ccccc1OC21CCN(C(=O)c2cccc3c2cnn3C)CC1` [Compound 867], for which the IC50 is not above 2000 nM.

`Cc1cccc(C(=O)N2CCC3(CC2)Oc2ccccc2-c2c3cnn2C)c1O` [Compound 868]: the 50% inhibitory concentration (IC50) fell in the range of 2000 to 5000 nM.

For the compound `CC(C)(C)S(=O)(=O)c1ccc(C(=O)N2CCC3(CC2)Oc2ccccc2-n2c(C#N)ccc23)cc1` [Compound 869], the IC50 was not above 2000 nM.

Usually IC50 stands for the point on the concentration scale where inhibition reaches its midpoint.
